Measurements as given in PMC11768667 (2025).
Values belong to the molecule of their own block, whether it stands above or below them.

Legend:
[1] = test system: FKB-3 (DNA, aptamer) CGAGCATAGGCAGAACTTACCACACAGCGTACCTCGTAGCCATGCGCCGTTGGGTCGTAAGAGCGAGTCATTC; experiment: gel elution assay; settings: 20 mM NaCl, 0.5 mM MgCl2; for binding: 10 mM Tris-HCl pH 7.4, displacement from cDNA-bio
[2] = test system: FKB-2 (DNA, aptamer) CGAGCATAGGCAGAACTTACCACGAGGACGGGTCAGTGCGTTAGGTGCCCACAGTCGTAAGAGCGAGTCATTC; experiment: gel elution assay; settings: 20 mM NaCl, 0.5 mM MgCl2; for binding: 10 mM Tris-HCl pH 7.4, displacement from cDNA-bio
[3] = test system: FKB-S-5'FAM (DNA, aptamer) CTTACCACCAAGTGAGGGTGTACGGTGGCTTACGCTTGGTCGTAAG; experiment: microscale thermophoresis; settings: 20 mM NaCl, 0.5 mM MgCl2; 10 mM Tris-HCl pH 7.4, 5% DMSO, 0.05% Tween-20
[4] = test system: FKB-1 (DNA, aptamer) CGAGCATAGGCAGAACTTACCACCAAGTGAGGGTGTACGGTGGCTTACGCTTGGTCGTAAGAGCGAGTCATTC; experiment: gel elution assay; settings: 20 mM NaCl, 0.5 mM MgCl2; for binding: 10 mM Tris-HCl pH 7.4, displacement from cDNA-bio, tested at 100 µM
[5] = test system: FKB-S (DNA, aptamer) CTTACCACCAAGTGAGGGTGTACGGTGGCTTACGCTTGGTCGTAAG; experiment: AuNP aggregation colorimetric assay; settings: NaCl (20 µL of 400 mM added after compound), room temperature, indirect readout
[6] = test system: FKB-1-5'FAM (DNA, aptamer) CGAGCATAGGCAGAACTTACCACCAAGTGAGGGTGTACGGTGGCTTACGCTTGGTCGTAAGAGCGAGTCATTC; experiment: microscale thermophoresis; settings: 20 mM NaCl, 0.5 mM MgCl2; 10 mM Tris-HCl pH 7.4, 5% DMSO, 0.05% Tween-20
[7] = 10 mM Tris-HCl pH 7.4, room temperature, displaced from cDNA-bio, apparent

SMILES: COc1cc(O)c(C(=O)/C=C/c2ccc(O)cc2)c(OC)c1
- binding [1]: weak
- binding [2]: weak
- binding [3]: weak
- binding [4]: no

SMILES: COc1cc(O)c(C(=O)/C=C/c2ccccc2)c(OC)c1
- KD [1, 7]: 40.5 µM
- binding ([5]; FKB 0-5 μM): yes
- KD [2, 7]: 9.97 µM
- KD [3]: 0.28 µM
- KD [4, 7]: 2.87 µM
- KD [6]: 1.45 µM

SMILES: COc1ccc(/C=C/C(=O)c2c(O)cc(OC)cc2OC)cc1
- binding [1]: weak
- binding [2]: weak
- binding [3]: weak
- binding [4]: no

SMILES: O=C(/C=C/c1ccc(O)cc1)c1ccc(O)cc1O
- binding [4]: no

Next, values leading:

- binding [4]: no
SMILES: O=C1c2cccc(O)c2C(=O)c2c(O)cc(CO)cc21

- binding [5]: no
- binding [4]: no
SMILES: O=c1c(O)c(-c2cc(O)c(O)c(O)c2)oc2cc(O)cc(O)c12

- binding [5]: no
- binding [4]: no
SMILES: O=c1c(O)c(-c2ccc(O)c(O)c2)oc2cc(O)cc(O)c12
